Results as given in patent US20230312576A1, “4-(7H-PYRROLO[2,3-D]PYRIMIDIN-4-YL)-3,6-DIHYDROPYRIDINE-1-(2H)-CARBOXAMIDE DERIVATIVES AS LIMK AND/OR ROCK KINASES INHIBITORS FOR USE IN THE TREATMENT OF CANCER” (CENTRE NATIONAL DE LA RECHERCHE SCIENTIFIQUE, priority 2020, published 2023).
Read-outs that look alike come from different tables or passages of the source.

Tests used:
[1] = test system: cofilin phosphorylation, HeLa cells; experiment: Cofilin phosphorylation by Western Blot (anti-phospho-Ser3-cofilin) in HeLa cells; type: cell-based; settings: Homo sapiens, HeLa, 2 h
ROCK1 = ROCK1 (Homo sapiens (Human), UniProt Q13464); experiment: Z'Lyte assay, ROCK1 inhibition at a single concentration; type: biochemical
Chain of ROCK1 (Q13464 whole entry): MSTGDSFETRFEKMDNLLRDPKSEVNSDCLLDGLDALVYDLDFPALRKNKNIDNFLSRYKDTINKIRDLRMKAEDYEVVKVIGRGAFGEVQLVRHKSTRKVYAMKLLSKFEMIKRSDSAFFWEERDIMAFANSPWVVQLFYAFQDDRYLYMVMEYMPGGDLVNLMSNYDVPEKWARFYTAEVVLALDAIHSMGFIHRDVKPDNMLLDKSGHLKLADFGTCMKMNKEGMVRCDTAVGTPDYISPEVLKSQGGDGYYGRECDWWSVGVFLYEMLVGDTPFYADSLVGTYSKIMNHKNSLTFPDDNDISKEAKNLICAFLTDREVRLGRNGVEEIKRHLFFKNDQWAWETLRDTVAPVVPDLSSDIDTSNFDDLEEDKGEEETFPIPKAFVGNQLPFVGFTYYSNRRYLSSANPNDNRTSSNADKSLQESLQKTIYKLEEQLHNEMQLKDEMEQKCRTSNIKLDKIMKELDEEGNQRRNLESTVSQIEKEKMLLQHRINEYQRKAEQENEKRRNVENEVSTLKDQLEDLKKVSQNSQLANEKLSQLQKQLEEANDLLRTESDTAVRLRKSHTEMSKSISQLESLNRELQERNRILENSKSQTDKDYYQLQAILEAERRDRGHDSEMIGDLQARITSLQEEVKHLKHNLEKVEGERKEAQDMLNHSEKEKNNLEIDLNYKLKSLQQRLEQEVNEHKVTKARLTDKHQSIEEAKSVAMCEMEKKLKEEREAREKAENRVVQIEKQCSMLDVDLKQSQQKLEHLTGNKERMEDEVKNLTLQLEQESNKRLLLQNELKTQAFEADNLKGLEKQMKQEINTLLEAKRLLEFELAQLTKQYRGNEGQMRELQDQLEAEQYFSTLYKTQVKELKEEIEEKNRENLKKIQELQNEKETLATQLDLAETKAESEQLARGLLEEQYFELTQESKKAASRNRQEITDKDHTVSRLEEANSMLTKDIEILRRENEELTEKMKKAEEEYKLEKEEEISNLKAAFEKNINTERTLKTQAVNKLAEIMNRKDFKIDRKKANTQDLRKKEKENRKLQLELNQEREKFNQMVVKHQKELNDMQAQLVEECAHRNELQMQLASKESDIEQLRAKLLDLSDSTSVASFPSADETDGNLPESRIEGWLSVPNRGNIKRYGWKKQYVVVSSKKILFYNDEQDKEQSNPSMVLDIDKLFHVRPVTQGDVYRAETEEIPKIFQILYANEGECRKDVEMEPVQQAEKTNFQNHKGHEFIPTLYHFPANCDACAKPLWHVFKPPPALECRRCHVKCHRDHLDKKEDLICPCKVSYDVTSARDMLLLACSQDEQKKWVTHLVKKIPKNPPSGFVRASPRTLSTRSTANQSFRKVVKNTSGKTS

ROCK2 = ROCK2 (Homo sapiens (Human), UniProt O75116); experiment: Z'Lyte assay, ROCK2 inhibition at a single concentration; type: biochemical
Chain of ROCK2 (O75116 whole entry): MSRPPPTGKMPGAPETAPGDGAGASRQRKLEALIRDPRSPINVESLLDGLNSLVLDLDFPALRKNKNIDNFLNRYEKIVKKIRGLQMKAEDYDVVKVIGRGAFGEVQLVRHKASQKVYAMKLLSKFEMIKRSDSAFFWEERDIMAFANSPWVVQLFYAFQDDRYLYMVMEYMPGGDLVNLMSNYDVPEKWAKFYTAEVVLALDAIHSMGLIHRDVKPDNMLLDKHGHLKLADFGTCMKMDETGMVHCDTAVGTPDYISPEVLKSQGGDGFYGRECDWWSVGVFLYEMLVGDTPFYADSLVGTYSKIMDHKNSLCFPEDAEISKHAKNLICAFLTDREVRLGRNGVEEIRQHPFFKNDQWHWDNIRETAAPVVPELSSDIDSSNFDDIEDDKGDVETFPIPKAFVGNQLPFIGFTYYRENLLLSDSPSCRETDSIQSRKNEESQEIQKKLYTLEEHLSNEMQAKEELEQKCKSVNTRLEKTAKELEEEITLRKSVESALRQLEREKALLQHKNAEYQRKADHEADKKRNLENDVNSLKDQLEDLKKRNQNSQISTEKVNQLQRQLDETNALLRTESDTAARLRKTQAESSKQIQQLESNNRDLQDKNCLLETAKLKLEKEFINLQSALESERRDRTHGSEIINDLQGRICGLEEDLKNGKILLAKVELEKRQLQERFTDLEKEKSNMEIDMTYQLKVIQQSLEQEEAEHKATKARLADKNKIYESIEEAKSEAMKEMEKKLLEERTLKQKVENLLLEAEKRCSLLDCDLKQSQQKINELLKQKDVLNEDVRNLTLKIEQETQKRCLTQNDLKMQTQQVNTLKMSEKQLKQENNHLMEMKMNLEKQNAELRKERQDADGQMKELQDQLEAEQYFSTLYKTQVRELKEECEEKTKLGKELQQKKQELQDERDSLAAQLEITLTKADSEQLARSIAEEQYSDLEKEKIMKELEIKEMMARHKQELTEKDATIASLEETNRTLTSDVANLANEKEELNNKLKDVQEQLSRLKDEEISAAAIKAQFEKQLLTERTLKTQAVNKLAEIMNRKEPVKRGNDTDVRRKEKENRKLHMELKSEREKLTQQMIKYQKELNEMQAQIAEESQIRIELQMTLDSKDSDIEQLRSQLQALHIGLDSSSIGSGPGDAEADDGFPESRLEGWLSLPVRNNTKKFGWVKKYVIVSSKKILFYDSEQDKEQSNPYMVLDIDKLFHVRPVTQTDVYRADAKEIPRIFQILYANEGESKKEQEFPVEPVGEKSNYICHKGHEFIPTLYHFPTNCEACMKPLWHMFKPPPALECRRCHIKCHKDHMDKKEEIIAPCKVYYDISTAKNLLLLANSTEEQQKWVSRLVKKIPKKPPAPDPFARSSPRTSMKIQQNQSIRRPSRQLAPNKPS

LIMK1 = LIMK1 (Homo sapiens (Human), UniProt P53667); experiment: Lanthascreen Eu binding assay (TR-FRET), inhibition of LIMK1
Chain of LIMK1 (P53667 whole entry): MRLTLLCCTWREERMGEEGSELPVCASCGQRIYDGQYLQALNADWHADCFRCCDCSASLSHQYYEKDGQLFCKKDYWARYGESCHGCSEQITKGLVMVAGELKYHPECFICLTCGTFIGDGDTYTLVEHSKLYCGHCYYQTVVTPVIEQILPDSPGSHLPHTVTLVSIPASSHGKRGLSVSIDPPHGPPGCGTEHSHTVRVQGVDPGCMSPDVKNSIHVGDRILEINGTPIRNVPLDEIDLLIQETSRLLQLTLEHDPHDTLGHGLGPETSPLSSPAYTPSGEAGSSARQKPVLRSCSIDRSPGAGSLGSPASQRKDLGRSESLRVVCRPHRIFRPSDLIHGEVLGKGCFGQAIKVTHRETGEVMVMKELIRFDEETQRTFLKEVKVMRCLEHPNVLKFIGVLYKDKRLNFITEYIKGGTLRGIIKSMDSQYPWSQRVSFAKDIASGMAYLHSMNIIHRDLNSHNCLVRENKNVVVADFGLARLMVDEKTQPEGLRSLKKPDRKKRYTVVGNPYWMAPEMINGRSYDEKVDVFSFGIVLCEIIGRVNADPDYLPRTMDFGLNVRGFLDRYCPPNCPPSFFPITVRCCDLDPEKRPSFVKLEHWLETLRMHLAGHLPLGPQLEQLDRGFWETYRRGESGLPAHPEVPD

LIMK2 = LIMK2 (Homo sapiens (Human), UniProt P53671); experiment: Lanthascreen Eu binding assay (TR-FRET), inhibition of LIMK2
Chain of LIMK2 (P53671 whole entry): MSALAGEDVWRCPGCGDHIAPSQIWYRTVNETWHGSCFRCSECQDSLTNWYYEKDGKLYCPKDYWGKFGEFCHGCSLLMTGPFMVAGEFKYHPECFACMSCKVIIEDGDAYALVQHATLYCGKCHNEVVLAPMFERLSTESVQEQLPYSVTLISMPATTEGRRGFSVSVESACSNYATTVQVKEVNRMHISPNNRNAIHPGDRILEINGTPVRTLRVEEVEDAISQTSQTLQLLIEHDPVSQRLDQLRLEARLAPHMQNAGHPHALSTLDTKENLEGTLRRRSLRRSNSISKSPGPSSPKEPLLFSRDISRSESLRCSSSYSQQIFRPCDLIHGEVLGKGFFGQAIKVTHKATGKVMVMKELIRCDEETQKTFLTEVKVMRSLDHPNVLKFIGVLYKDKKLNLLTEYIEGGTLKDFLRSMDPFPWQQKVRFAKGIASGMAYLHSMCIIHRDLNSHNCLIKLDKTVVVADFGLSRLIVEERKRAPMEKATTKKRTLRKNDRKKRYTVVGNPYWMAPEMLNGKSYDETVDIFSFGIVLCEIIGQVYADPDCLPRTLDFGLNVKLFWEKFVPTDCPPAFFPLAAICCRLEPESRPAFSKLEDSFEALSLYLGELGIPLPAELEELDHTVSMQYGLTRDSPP

[2] = read-out: % inhibition (ROCK1) 1 uM, 1 uM
[3] = read-out: % inhibition (ROCK2) 1 uM, 1 uM

Cc1c[nH]c2ncnc(C3=CCN(C(=O)Nc4ccc5ccccc5c4)CC3)c12 [Compound 13, 4-(5-Methyl-7H-pyrrolo[2,3-d]pyrimidin-4-yl)-N-(naphthalen-2-yl)-3,6-dihydropyridine-1(2H)-carboxamide]
inhibition at 25 µM ([1]; read-out: % inhibition Cofilin phosphorylation HeLa cells treated 2 h with 25 uM of inhibitor): 84.2% | inhibition at 25 µM ([1]; read-out: % inhibition of cofilin phosphorylation in HeLa cells (treatment 2 h, at 25 μM)): 84.2% | inhibition at 1 µM (ROCK1; [2]): 73% | inhibition at 1 µM (ROCK2; [3]): 56%

CC(C)(C)OC(=O)NCCCOc1cccc(-c2cccc(NC(=O)N3CC=C(c4ncnc5[nH]cc(C6CC6)c45)CC3)c2)c1 [Compound 165, tert-butyl N-[3-[3-[3-[[4-(5-cyclopropyl-7H-pyrrolo[2,3-d]pyrimidin-4-yl)-3,6-dihydro-2H-pyridine-1-carbonyl]amino]phenyl]phenoxy]propyl]carbamate]
Ki (LIMK1; Lanthascreen Eu binding assay): 169 nM | Ki (LIMK2; Lanthascreen Eu binding assay): 58.1 nM | inhibition at 1 µM (ROCK1; [2]): -2% | inhibition at 1 µM (ROCK2; [3]): 7%

Cc1c[nH]c2ncnc(C3=CCN(C(=O)Nc4cccc(-c5cccc(OCCCNC(=O)OC(C)(C)C)c5)c4)CC3)c12 [Compound 166, tert-butyl N-[3-[3-[3-[[4-(5-methyl-7H-pyrrolo[2,3-d]pyrimidin-4-yl)-3,6-di hydro-2H-pyridine-1-carbonyl]amino]phenyl]phenoxy]propyl]carbamate]
Ki (LIMK1; Lanthascreen Eu binding assay): 94.6 nM | Ki (LIMK2; Lanthascreen Eu binding assay): 122 nM | inhibition at 1 µM (ROCK1; [2]): 12% | inhibition at 1 µM (ROCK2; [3]): 2%

CC1=CC(C)=[N+]2C1=Cc1ccc(CCC(=O)NCCCOc3cccc(-c4cccc(NC(=O)N5CC=C(c6ncnc7[nH]c8c(c67)CCC8)CC5)c4)c3)n1[B-]2(F)F [Compound 167, N-(3′-(3-(3-(5,5-Difluoro-7,9-dimethyl-5H-dipyrrolo[1,2-c:2′,1′-f][1,3,2]diazaborinin-3-yl)propanamido)propoxy)-[1,1′-biphenyl]-3-yl)-4-(5,6,7,8-tetrahydrocyclopenta[4,5]pyrrolo[2,3-d]pyrimidin-4-yl)-3,6-dihydropyridine-1(2H)-carboxamide]
Ki (LIMK1): 112 nM | Ki (LIMK2): 113 nM | % inhibition (ROCK1) 1 uM (ROCK1): −4% | % inhibition (ROCK2) 1 uM (ROCK2): 6%

Cc1c[nH]c2ncnc(C3=CCN(C(=O)Nc4cccc(C(=O)N5CCN(S(C)(=O)=O)CC5)c4)CC3)c12 [Compound 172, 4-(5-methyl-7H-pyrrolo[2,3-d]pyrimidin-4-yl)-N-[3-(4-methylsulfonylpiperazine-1-carbonyl)phenyl]-3,6-dihydro-2H-pyridine-1-carboxamide]
Ki (LIMK1; Lanthascreen Eu binding assay): 1080 nM | Ki (LIMK2; Lanthascreen Eu binding assay): 2540 nM | inhibition at 1 µM (ROCK1; [2]): 88% | inhibition at 1 µM (ROCK2; [3]): 78%

Cc1c[nH]c2ncnc(C3=CCN(C(=O)Nc4cccc(Oc5cccc(N(C)C)c5)c4)CC3)c12 [Compound 177, N-(3-(3-(dimethylamino)phenoxy)phenyl)-4-(5-methyl-7H-pyrrolo[2,3-d]pyrimidin-4-yl)-3,6-dihydropyridine-1(2H)-carboxamide]
Ki (LIMK1; Lanthascreen Eu binding assay): 33.6 nM | Ki (LIMK2; Lanthascreen Eu binding assay): 150 nM | inhibition at 1 µM (ROCK1; [2]): 49% | inhibition at 1 µM (ROCK2; [3]): 30%

Cc1c[nH]c2ncnc(C3=CCN(C(=O)Nc4cccc(OCCN5CCN(C)CC5)c4)CC3)c12 [Compound 184, 4-(5-methyl-7H-pyrrolo[2,3-d]pyrimidin-4-yl)-N-(3-(2-(4-methylpiperazin-1-yl)ethoxy)phenyl)-3,6-dihydropyridine-1(2H)-carboxamide]
Ki (LIMK1; Lanthascreen Eu binding assay): 710 nM | Ki (LIMK2; Lanthascreen Eu binding assay): 1470 nM | inhibition at 1 µM (ROCK1; [2]): 87% | inhibition at 1 µM (ROCK2; [3]): 78%

Cc1c[nH]c2ncnc(C3=CCN(C(=O)Nc4cccc(OCCCN5CCN(C)CC5)c4)CC3)c12 [Compound 185, 4-(5-methyl-7H-pyrrolo[2,3-d]pyrimidin-4-yl)-N-(3-(3-(4-methylpiperazin-1-yl)propoxy)phenyl)-3,6-dihydropyridine-1(2H)-carboxamide]
Ki (LIMK1; Lanthascreen Eu binding assay): 669 nM | Ki (LIMK2; Lanthascreen Eu binding assay): 863 nM | inhibition at 1 µM (ROCK1; [2]): 99% | inhibition at 1 µM (ROCK2; [3]): 97%

Cc1c[nH]c2ncnc(C3=CCN(C(=O)Nc4cccc(OCCCNC(=O)OC(C)(C)C)c4)CC3)c12 [Compound 188, tert-Butyl (3-(3-(4-(5-methyl-7H-pyrrolo[2,3-d]pyrimidin-4-yl)-1,2,3,6-tetrahydropyridine-1-carboxamido)phenoxy)propyl)carbamate]
Ki (LIMK1; Lanthascreen Eu binding assay): 65 nM | Ki (LIMK2; Lanthascreen Eu binding assay): 50.8 nM | inhibition at 1 µM (ROCK1; [2]): 48% | inhibition at 1 µM (ROCK2; [3]): 33%

Cc1c[nH]c2ncnc(C3=CCN(C(=O)Nc4cccc(OCC5CCN(C)CC5)c4)CC3)c12 [Compound 195, 4-(5-methyl-7H-pyrrolo[2,3-d]pyrimidin-4-yl)-N-(3-((1-methylpiperidin-4-yl)methoxy)phenyl)-3,6-dihydropyridine-1(2H)-carboxamide]
Ki (LIMK1; Lanthascreen Eu binding assay): 174 nM | Ki (LIMK2; Lanthascreen Eu binding assay): 189 nM | inhibition at 1 µM (ROCK1; [2]): 99% | inhibition at 1 µM (ROCK2; [3]): 93%

CNC(=O)c1cc(Oc2ccc(NC(=O)N3CC=C(c4ncnc5[nH]cc(C)c45)CC3)cc2)ccn1 [Compound 196, N-methyl-4-(4-(4-(5-methyl-7H-pyrrolo[2,3-d]pyrimidin-4-yl)-1,2,3,6-tetrahydropyridine-1-carboxamido)phenoxy)picolinamide]
Ki (LIMK1; Lanthascreen Eu binding assay): 192 nM | Ki (LIMK2; Lanthascreen Eu binding assay): 49.3 nM | inhibition at 1 µM (ROCK1; [2]): 21% | inhibition at 1 µM (ROCK2; [3]): 12%

CNC(=O)c1cc(Oc2cccc(NC(=O)N3CC=C(c4ncnc5[nH]cc(C)c45)CC3)c2)ccn1 [Compound 198, N-methyl-4-(3-(4-(5-methyl-7H-pyrrolo[2,3-d]pyrimidin-4-yl)-1,2,3,6-tetrahydropyridine-1-carboxamido)phenoxy)picolinamide]
Ki (LIMK1; Lanthascreen Eu binding assay): 3.08 nM | Ki (LIMK2; Lanthascreen Eu binding assay): 2.89 nM | inhibition at 1 µM (ROCK1; [2]): 79% | inhibition at 1 µM (ROCK2; [3]): 65%

Cc1c[nH]c2ncnc(C3=CCN(C(=O)Nc4cccc(Oc5cccc(F)c5)c4)CC3)c12 [Compound 200, N-(3-(3-fluorophenoxy)phenyl)-4-(5-methyl-7H-pyrrolo[2,3-d]pyrimidin-4-yl)-3,6-dihydropyridine-1(2H)-carboxamide]
Ki (LIMK1; Lanthascreen Eu binding assay): 46.2 nM | Ki (LIMK2; Lanthascreen Eu binding assay): 9.83 nM | inhibition at 1 µM (ROCK1; [2]): 35% | inhibition at 1 µM (ROCK2; [3]): 13%

Cc1c[nH]c2ncnc(C3=CCN(C(=O)Nc4cccc(Oc5ccc(F)cc5)c4)CC3)c12 [Compound 202, N-(3-(4-fluorophenoxy)phenyl)-4-(5-methyl-7H-pyrrolo[2,3-d]pyrimidin-4-yl)-3,6-dihydropyridine-1(2H)-carboxamide]
Ki (LIMK1; Lanthascreen Eu binding assay): 70.4 nM | Ki (LIMK2; Lanthascreen Eu binding assay): 68.7 nM | inhibition at 1 µM (ROCK1; [2]): 26% | inhibition at 1 µM (ROCK2; [3]): 15%

Cc1c[nH]c2ncnc(C3=CCN(C(=O)Nc4cccc(Oc5cccc(Cl)c5)c4)CC3)c12 [Compound 204, N-(3-(3-chlorophenoxy)phenyl)-4-(5-methyl-7H-pyrrolo[2,3-d]pyrimidin-4-yl)-3,6-dihydropyridine-1(2H)-carboxamide]
Ki (LIMK1; Lanthascreen Eu binding assay): 50.5 nM | Ki (LIMK2; Lanthascreen Eu binding assay): 15.6 nM | inhibition at 1 µM (ROCK1; [2]): 71% | inhibition at 1 µM (ROCK2; [3]): 46%

Cc1c[nH]c2ncnc(C3=CCN(C(=O)Nc4cccc(Oc5ccc(Br)cc5Cl)c4)CC3)c12 [Compound 206, N-(3-(4-bromo-2-chlorophenoxy)phenyl)-4-(5-methyl-7H-pyrrolo[2,3-d]pyrimidin-4-yl)-3,6-dihydropyridine-1(2H)-carboxamide]
Ki (LIMK1; Lanthascreen Eu binding assay): 418 nM | Ki (LIMK2; Lanthascreen Eu binding assay): 676 nM | inhibition at 1 µM (ROCK1; [2]): 13% | inhibition at 1 µM (ROCK2; [3]): 3%

Cc1c[nH]c2ncnc(C3=CCN(C(=O)Nc4cccc(Oc5cccnc5)c4)CC3)c12 [Compound 208, 4-(5-methyl-7H-pyrrolo[2,3-d]pyrimidin-4-yl)-N-(3-(pyridin-3-yloxy)phenyl)-3,6-dihydropyridine-1(2H)-carboxamide]
Ki (LIMK1; Lanthascreen Eu binding assay): 37.3 nM | Ki (LIMK2; Lanthascreen Eu binding assay): 7.57 nM | inhibition at 1 µM (ROCK1; [2]): 91% | inhibition at 1 µM (ROCK2; [3]): 72%

Cc1c[nH]c2ncnc(C3=CCN(C(=O)Nc4cccc(Oc5cccc(OCc6ccccc6)c5)c4)CC3)c12 [Compound 211, N-(3-(3-(benzyloxy)phenoxy)phenyl)-4-(5-methyl-7H-pyrrolo[2,3-d]pyrimidin-4-yl)-3,6-dihydropyridine-1(2H)-carboxamide]
Ki (LIMK1; Lanthascreen Eu binding assay): 103 nM | Ki (LIMK2; Lanthascreen Eu binding assay): 466 nM | inhibition at 1 µM (ROCK1; [2]): 5% | inhibition at 1 µM (ROCK2; [3]): 3%

Cc1c[nH]c2ncnc(C3=CCN(C(=O)Nc4cccc(Oc5cccc(O)c5)c4)CC3)c12 [Compound 213, N-(3-(3-hydroxyphenoxy)phenyl)-4-(5-methyl-7H-pyrrolo[2,3-d]pyrimidin-4-yl)-3,6-dihydropyridine-1(2H)-carboxamide]
Ki (LIMK1; Lanthascreen Eu binding assay): 12.9 nM | Ki (LIMK2; Lanthascreen Eu binding assay): 16.3 nM | inhibition at 1 µM (ROCK1; [2]): 55% | inhibition at 1 µM (ROCK2; [3]): 27%

Cc1c[nH]c2ncnc(C3=CCN(C(=O)Nc4cccc(Oc5cccc(OC(=O)N(C)C)c5)c4)CC3)c12 [Compound 216, 3-(3-(4-(5-methyl-7H-pyrrolo[2,3-d]pyrimidin-4-yl)-1,2,3,6-tetrahydropyridine-1-carboxamido)phenoxy)phenyl dimethylcarbamate]
Ki (LIMK1; Lanthascreen Eu binding assay): 4.88 nM | Ki (LIMK2; Lanthascreen Eu binding assay): 14.6 nM | inhibition at 1 µM (ROCK1; read-out: % inhibition (ROCK1) 1 uM): 71% | inhibition at 1 µM (ROCK2; read-out: % inhibition (ROCK2) 1 uM): 56%

CC(=O)Nc1cccc(Oc2cccc(NC(=O)N3CC=C(c4ncnc5[nH]cc(C)c45)CC3)c2)c1 [Compound 219, N-(3-(3-acetamidophenoxy)phenyl)-4-(5-methyl-7H-pyrrolo[2,3-d]pyrimidin-4-yl)-3,6-dihydropyridine-1(2H)-carboxamide]
Ki (LIMK1; Lanthascreen Eu binding assay): 4.93 nM | Ki (LIMK2; Lanthascreen Eu binding assay): 5.46 nM | inhibition at 1 µM (ROCK1; [2]): 60% | inhibition at 1 µM (ROCK2; [3]): 37%

CNC(=O)c1cccc(Oc2cccc(NC(=O)N3CC=C(c4ncnc5[nH]cc(C)c45)CC3)c2)c1 [Compound 222, 4-(5-methyl-7H-pyrrolo[2,3-d]pyrimidin-4-yl)-N-(3-(3-(methylcarbamoyl)phenoxy)phenyl)-3,6-dihydropyridine-1(2H)-carboxamide]
Ki (LIMK1; Lanthascreen Eu binding assay): 4.59 nM | Ki (LIMK2; Lanthascreen Eu binding assay): 2.96 nM | inhibition at 1 µM (ROCK1; [2]): 66% | inhibition at 1 µM (ROCK2; [3]): 48%
